By GI50 is commonly meant the concentration giving 50% growth inhibition. One may read the TGI as the concentration at which net growth stops.

This note sets out measurements from PubChem BioAssay (NCI).

SMILES strings stand for the structures. Values joined by “and” are separate entries in the source; they are usually repeats but may differ in a detail not shown here. Equal entries are not always repeated.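 Dose response: 5 concentrations. Exposure: 48 h. Format: 96-well plates. Endpoint: linear interpolation; highest concentration if not reached. GI50 is the concentration that inhibits growth by half. At the TGI there is no net growth.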 Bounds are passed on as bounds.

Test systems include A498 renal; COLO 205 colon; DU-145 prostate; K-562 leukemia; MCF7 breast; PC-3 prostate; SNB-75 CNS; SW-620 colon.
What all share (assay): DTP human tumour cell line panel, 48 h

With `C/C(=N/Nc1nc2ccccc2n1C)c1ccccn1`, the GI50 with A498 renal was 0.123 µM; with COLO 205 colon, 0.0254 µM; in the test with DU-145 prostate, 0.141 µM; in the test with K-562 leukemia, 0.0173 µM; in the test on MCF7 breast, 0.0276 µM; in the test on PC-3 prostate, 0.0369 µM. Also, the 50% growth inhibitory concentration (GI50) with SNB-75 CNS was 0.246 µM; in the test with SW-620 colon, 0.0429 µM. Moreover, the TGI in the test on A498 renal was 0.81 µM; with COLO 205 colon it was 10.9 µM; in the test with DU-145 prostate, 17.7 µM; with K-562 leukemia, greater than 100 µM; in the test with MCF7 breast, 16.1 µM; with PC-3 prostate, 36 µM. Also, the TGI with SNB-75 CNS turned out to be 8.86 µM; in the test on SW-620 colon, 21.8 µM.

On to `COc1ccc(/C=C\c2cc(OC)c(OC)c(OC)c2)cc1OC(=O)c1cccc(Cn2cc(CCOC(=O)[C@H](N)Cc3cn(C)c4ccccc34)nn2)c1`, for which the 50% growth inhibitory concentration (GI50) is less than 0.01 µM with A498 renal; 0.35 µM with COLO 205 colon; less than 0.01 µM in the test with DU-145 prostate; less than 0.01 µM in the test with K-562 leukemia; 0.0123 µM with MCF7 breast; less than 0.01 µM in the test on PC-3 prostate. Besides, the GI50 in the test with SNB-75 CNS and in the test on SW-620 colon was less than 0.01 µM throughout. The TGI in the test on COLO 205 colon was 1.55 µM; with DU-145 prostate, greater than 100 µM; in the test with K-562 leukemia it was greater than 22.4 µM; in the test with MCF7 breast, 14 µM; in the test on PC-3 prostate, greater than 100 µM; with SNB-75 CNS, 0.0293 µM. The TGI in the test with SW-620 colon was greater than 100 µM.

As to `O=c1ccn(C2OC(CO/N=C/c3ccc(O)c(O)c3O)C(O)C2O)c(=O)[nH]1` (stereo not given), the GI50 with A498 renal was 15.4 µM; with COLO 205 colon, 14.7 µM; in the test on DU-145 prostate, 17.1 µM; in the test on K-562 leukemia, 21.7 µM; in the test on MCF7 breast, 18.8 µM; with PC-3 prostate, 25.1 µM. In addition, the figures for the GI50 in the test on SNB-75 CNS and in the test with SW-620 colon were 16.4 µM and 19.1 µM, respectively. Besides, the TGI came out at 39.2 µM in the test with A498 renal; 30.6 µM with COLO 205 colon; 33.2 µM with DU-145 prostate; 78.5 µM in the test on K-562 leukemia; 37.6 µM with MCF7 breast; 86.9 µM in the test with PC-3 prostate. In addition, the total growth inhibition concentration (TGI) came to 32.2 µM in the test with SNB-75 CNS and 35.9 µM with SW-620 colon.

Take `CCOC(=O)c1[nH]c(Br)c(-c2ccc(Br)cc2)c1Br`: the concentration for 50% growth inhibition (GI50) with A498 renal was 0.288 µM; in the test with DU-145 prostate, 2.19 µM; in the test on K-562 leukemia it was 0.193 µM; in the test with MCF7 breast, 0.895 µM; with PC-3 prostate, 1.25 µM; in the test on SNB-75 CNS, 0.461 µM. For the same molecule, the TGI with A498 renal was 5.28 µM and 1.22 µM; in the test on COLO 205 colon it was 2.54 µM and 1.85 µM; with DU-145 prostate, 55.8 µM; in the test on K-562 leukemia it was 1.12 µM; with MCF7 breast, greater than 100 µM; in the test with PC-3 prostate, 15.5 µM. Besides, the total growth inhibition concentration (TGI) in the test on SNB-75 CNS is 2.68 µM and 4.41 µM; in the test on SW-620 colon, 14 µM.

`COc1cc2c3c(n(CCCN)c(=O)c2cc1OC)-c1cc2c(cc1/C3=C\CCN)OCO2`: the GI50 was 35.9 µM with A498 renal; 4.34 µM with COLO 205 colon; 2.52 µM in the test on DU-145 prostate; 2.17 µM with K-562 leukemia; 0.692 µM in the test on MCF7 breast; 4.43 µM in the test on PC-3 prostate. The GI50 in the test on SNB-75 CNS was 1.85 µM; in the test with SW-620 colon, 3.56 µM. Also, the TGI in the test on A498 renal is 97.2 µM; in the test on COLO 205 colon it was 33.5 µM; in the test with DU-145 prostate it was 12.7 µM; in the test on K-562 leukemia, greater than 40.4 µM; with PC-3 prostate, 17.8 µM; in the test on SNB-75 CNS, 8.02 µM. In the test on SW-620 colon, this molecule displayed a TGI greater than 66.2 µM.

With `CC(=O)[C@@]1(O)CC[C@H]2[C@@H]3C[C@H](C)C4=CC(=O)CC[C@]4(C)[C@H]3[C@@H](O)C[C@@]21C`, the TGI in the test on A498 renal, in the test on COLO 205 colon, with DU-145 prostate, in the test with K-562 leukemia, in the test on MCF7 breast and in the test with PC-3 prostate was greater than 100 µM throughout. The TGI in the test on SNB-75 CNS and with SW-620 colon was greater than 100 µM each time.

As to `CC[C@H](Nc1nc(NCc2cnc(C)cc2C)c2ncn(C(C)C)c2n1)[C@@H](C)O`, the 50% growth inhibitory concentration (GI50) in the test on A498 renal was 0.167 µM; in the test on COLO 205 colon, 0.247 µM; with DU-145 prostate, 0.387 µM; with K-562 leukemia it was 0.48 µM; with MCF7 breast, 0.284 µM; with PC-3 prostate it was 0.314 µM. Moreover, the values for the concentration for 50% growth inhibition (GI50) in the test with SNB-75 CNS and in the test with SW-620 colon were 0.159 µM and 0.235 µM, respectively. Further, the concentration for total growth inhibition (TGI) was 0.391 µM with A498 renal; 0.64 µM in the test on COLO 205 colon; greater than 100 µM in the test on DU-145 prostate; greater than 100 µM in the test on K-562 leukemia; 7.23 µM with MCF7 breast; greater than 100 µM in the test with PC-3 prostate. Further, the concentration for total growth inhibition (TGI) was 0.407 µM with SNB-75 CNS and greater than 21.9 µM in the test with SW-620 colon.

`O=c1c2ccccc2n(C[C@H]2CO2)c2ccccc12`: the GI50 was 2.62 µM in the test on A498 renal; 1.49 µM with COLO 205 colon; 1.35 µM in the test on DU-145 prostate; 2.2 µM in the test on K-562 leukemia; 0.39 µM with MCF7 breast; 2.04 µM in the test on PC-3 prostate. In addition, the GI50 was 1.52 µM with SNB-75 CNS and 0.828 µM in the test on SW-620 colon. For the same molecule, the TGI in the test on A498 renal was 6.57 µM; in the test with COLO 205 colon, 4.15 µM; in the test with DU-145 prostate, 5.85 µM; in the test with K-562 leukemia, greater than 100 µM; in the test on MCF7 breast, 2.98 µM; with PC-3 prostate, 8.34 µM. Also, the TGI in the test on SNB-75 CNS was 3.46 µM; in the test on SW-620 colon, 12.7 µM.

In the case of `O=NNc1ccc(S(=O)(=O)c2ccccc2)cn1`, the total growth inhibition concentration (TGI) with A498 renal, in the test on COLO 205 colon, in the test with DU-145 prostate, with K-562 leukemia, with MCF7 breast and with PC-3 prostate was greater than 100 µM in each case. Moreover, the total growth inhibition concentration (TGI) in the test with SNB-75 CNS and in the test on SW-620 colon was greater than 100 µM throughout.

Regarding `CC(C)(O)CS(=O)(=O)Nc1ccc2c(c1)CCN(C(=O)COc1cccnc1)C2`, the GI50 in the test with A498 renal is greater than 100 µM; in the test with COLO 205 colon, 0.141 µM; in the test with DU-145 prostate, 0.618 µM; with K-562 leukemia, 0.0652 µM; in the test on MCF7 breast it was 5.1 µM; in the test on PC-3 prostate, 1.06 µM. Moreover, the GI50 in the test with SNB-75 CNS is greater than 100 µM; in the test on SW-620 colon, 0.0495 µM. Further, the TGI in the test with A498 renal, with COLO 205 colon, in the test on DU-145 prostate, in the test with K-562 leukemia, with MCF7 breast and in the test with PC-3 prostate was greater than 100 µM in each case. Besides, the total growth inhibition concentration (TGI) with SNB-75 CNS and with SW-620 colon was greater than 100 µM each time.
